Measurements as given in US8552053B2, “7-substituted indirubin-3′oximes and their applications” (Centre National de la Recherche Scientifique, priority 2005, dated 2013).
Like-named read-outs stand apart in the source and are kept apart here.

Columns and labels:
[1] = system: AhR-dependent expression of p27^Kip1; assay: p27Kip1 expression in 5 L and BP8 hepatoma cells (Western blotting); format: cell-based, mouse; details: 10 μM, 24 h
Procedure: Actin Western blotting was used as a loading control. […] Average±s.e. of three determinations. […] Karlsruhe, Institute of Genetics, 76021 Karlsruhe, Germany). […] 6.8, 1 mM EDTA, 2% SDS.

SH-SY5Y cells [2] = assay: SH-SY5Y cell survival, MTS reduction assay; format: cell-based, human
p21^Cip1 = assay: p21Cip1 expression, Western blotting; details: SH-SY5Y cells, 12.5 μM, 12 h
[3] = system: SH-SY5Y cells differentiated by retinoic acid; assay: Viability of RA-differentiated versus proliferating SH-SY5Y cells, MTS; format: cell-based, human; details: 24 h; 7BIO 25 μM, STS 1 μM
[4] = system: SH-SY5Y cells transfected with pcDNA3/Bcl-2 or pcDNA3/Bcl-XL; assay: Viability of Bcl-2 / Bcl-XL overexpressing SH-SY5Y cells, MTS; format: cell-based, human; details: 7BIO 25 μM, STS 2 μM; 9 and 24 h
[5] = system: 5 L (AhR+/+) and BP8 (AhR−/−) cells; details: 24 h
SH-SY5Y cells [6] = assay: Nuclear morphology, bisBenzimide and propidium iodide staining; format: cell-based, human; details: 24 h; 10 or 25 μM
Procedure: Following double staining of DNA with BisBenzimide and propidium iodide, cells were examined by fluorescence microscopy. Thick arrows: apoptosis (nuclear fragmentation); thin arrows: secondary necrosis; arrow heads: pycnotic nuclei. Scale bar: 20 μm. Cell death characterization based on nuclear morphology was assessed by double staining with 0.05 μg/ml bisBenzimide and 25 μg/ml propidium iodide. Cell viability was determined by means of the MTS method. Both procedures have been previously described in detail (Ribas and Boix, 2004).

MDA-MB-231 cells = assay: MDA-MB-231 cell proliferation and cell cycle distribution; format: cell-based, human
Procedure: MDA-MB-231 cells (derived from hormone-independent breast cancer) were cultured in DMEM supplemented with 10% FCS. For experiments, these cells were seeded in 24-well boxes or in 35 mm Petri dishes at appropriate densities (4.10^4 cells per well for cell growth experiments; 10^5 cells per dish for cell cycle analysis) and exposed to indirubins as indicated.

SH-SY5Y cells [7] = assay: DNA laddering (internucleosomal fragmentation); format: cell-based, human; details: 25 μM, 24 h
Procedure: (§1) Cell death characterization based on nuclear morphology was assessed by double staining with 0.05 μg/ml bisBenzimide and 25 μg/ml propidium iodide. Cell viability was determined by means of the MTS method. Both procedures have been previously described in detail (Ribas and Boix, 2004). For evaluation of DNA laddering, cell DNA was extracted and electrophoresed in 1.5% agarose gels to evidence the internucleosomal fragmentation typical of apoptosis.

[8] = system: effector caspases (DEVDase activity); assay: Effector caspase activation in IMR-5, IMR-32, HL-60 and Jurkat cells; format: cell-based, human; details: 25 μM, 24 h
Procedure: FIG. 15. […] Every point is the mean±s.e. of three independent experiments with six independent measurements per experiment. […] Bar value is the mean±s.e. of 6 independent determinations.
(§2) The measurement of caspase activity is based on determining the fluorescence released from the AcDEVDafc synthetic substrate after its direct addition to the culture medium, detergent lysis, and incubation at 37°. This method is devised to be applied to 96 multiwell plates. It allows kinetic determinations of caspase activation and the characterization of multiple drugs simultaneously. (Ribas et al., 2005).

SH-SY5Y cells [9] = assay: SH-SY5Y cell survival, MTS reduction assay; format: cell-based, human; remark: listed apart in the source
Procedure: (§3) SH-SY5Y, IMR-5 and IMR-32 human neuroblastoma cell lines were grown in DMEM medium from (Biowhittaker) plus 2 mM L-glutamine from Eurobio (Courtaboeuf, France) or DMEM already supplemented with 2 mM L-glutamine (Invitrogen, Barcelona, Spain), plus antibiotics and a 10% volume of FCS (Invitrogen, Cergy Pontoise, France or Barcelona, Spain). SH-SY5Y cell lines permanently transfected with pcDNA3/Bcl-2, pcDNA3/Bcl-XL and empty pcDNA3 vectors were grown like their untransfected counterparts. However, Geneticin (G-418) selection was maintained in the growing cultures before the terminal experiments (Ribas and Boix, 2004). In order to induce differentiation, SH-SY5Y cells were cultured on collagen coated plates and treated with 10 μM RA for five days.
as §1
The effects of each indirubin was tested, at a 25 μM final concentration, on the survival of the neuroblastoma SH-SY5Y cell line after 24 h or 48 h exposure.

CDK5/p25 = CDK5/p25 (Homo sapiens, UniProt Q00535); assay: CDK5/p25 kinase assay; format: biochemical, mammalian
[10] = system: IMR-5, IMR-32, HL-60 and Jurkat cells; assay: Viability of IMR-5, IMR-32, HL-60 and Jurkat cells, MTS; format: cell-based, human; details: 24 h
Procedure: as §3, with “FIG. 15. […] Every point is the mean±s.e. of three independent experiments with six independent measurements per experiment. […] SH-SY5Y,” for “SH-SY5Y,”, “[…] HL-60 and Jurkat” for “In order to induce differentiation, SH-SY5Y”, “grown in RPMI 1640 medium with 10% FCS” for “cultured on collagen coated plates”, “antibiotics from Invitrogen (Barcelona, Spain).” for “treated with 10 μM RA for five days.”

p53 = p53 expression, Western blotting; details: SH-SY5Y cells, 12.5 μM
SH-SY5Y cells [11] = assay: SH-SY5Y cell death, LDH release assay; format: cell-based, human; details: IO, 5BIO, 6BIO, 7BIO compared (FIG. 3B)
Procedure: In addition, cell death was estimated 48 h after the addition of each indirubin (25 μM) using the LDH release assay. As MTS reduction is occasionally observed under conditions different from cell death, an independent cell death evaluation procedure was used, the lactate dehydrogenase (LDH) release assay. This assay confirmed the induction of cell death by the indirubins of the invention, despite their overall lack of effects on CDKs and GSK-3.

[12] = system: 5 L (AhR+/+) and BP8 (AhR−/−) cells; assay: Cell cycle distribution of 5 L and BP8 cells (FACS); format: cell-based, mouse; details: 10 μM, 24 h
[13] = system: effector caspase activity (DEVDase); assay: Caspase (DEVDase) assay in SH-SY5Y cells; format: cell-based, human; details: 24 h dose-response; time course at 25 μM
Procedure: The value of control untreated cells is placed at time 0. DEVDase activity was measured as arbitrary fluorescence units. Every point is the mean±s.e. of at least three independent determinations. (B). […] Every point is the mean±s.e. of at least three independent determinations.
as §2

cytochome C release = assay: Cytochrome C release from mitochondria; details: 12.5 μM, 10 h
[14] = system: wild-type HCT-116 and HCT-116 sub-clones deprived of p53; assay: Survival of wild-type and p53-deprived HCT-116 cells, MTS; format: cell-based, human; details: 24 h
Procedure: Average±s.e. of three determinations. HCT116 human adenocarcinoma cell line were obtained from Dr. Vogelstein (The Howard Hughes Medical Institute, Sidney Kimmel Comprehensive Cancer Center, The Johns Hopkins School of Medicine, Baltimore, Md. 21231, USA). HCT116 cells were cultured in McCoy's 5A (Biowhittaker) supplemented with antibiotics and 10% FCS. General culture conditions were an atmosphere of 5% CO2 and a temperature of 37° C. Culture dishes and other plastic disposable tools were supplied by Corning (Corning, N.Y., USA). Indirubin treatments were performed on exponentially growing cultures at the indicated time and concentrations. Control experiments were carried also using appropriate dilutions of DMSO.

Sequence of CDK5/p25 (Q00535 whole entry, species assumed): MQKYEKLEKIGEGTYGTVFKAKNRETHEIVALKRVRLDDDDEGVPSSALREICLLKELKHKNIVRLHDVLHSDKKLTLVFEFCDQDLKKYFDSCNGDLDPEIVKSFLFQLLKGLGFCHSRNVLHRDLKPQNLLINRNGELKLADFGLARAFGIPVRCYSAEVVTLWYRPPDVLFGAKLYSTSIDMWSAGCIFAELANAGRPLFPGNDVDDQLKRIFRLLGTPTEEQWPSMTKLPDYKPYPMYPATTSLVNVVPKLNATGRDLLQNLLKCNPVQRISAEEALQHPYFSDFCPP
Sequence of CDK5/p25 (Q15078 99-307 partner limits assumed, species assumed): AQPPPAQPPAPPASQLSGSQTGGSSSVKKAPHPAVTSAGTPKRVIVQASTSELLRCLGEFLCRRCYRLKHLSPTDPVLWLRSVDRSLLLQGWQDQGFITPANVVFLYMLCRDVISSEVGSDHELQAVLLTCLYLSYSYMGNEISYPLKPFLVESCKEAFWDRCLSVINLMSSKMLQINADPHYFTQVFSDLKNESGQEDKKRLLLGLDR

(2′Z,3′E)-7-bromoindirubin-3′-oxime [7BIO]
AhR-dependent expression of p27^Kip1 [1]: potently enhance
sensitivity of cell death to the presence of the caspase inhibitor Q-VD-OPh (SH-SY5Y cells [2]; 20 μM Q-VD-OPh, MTS 43 h after addition (Table 5)): completely insensitive
concentration required to reduce cell survival (MTS reduction) (SH-SY5Y cells [2]; 48 h, IO, 5BIO, 6BIO, 7BIO compared (FIG. 3A)): most potent compound
induction of p21^Cip1 overexpression (p21^Cip1): negligible effects
effect of cell differentiation on induced cell death [3]: negligible effect
protection by Bcl-2 / Bcl-XL overexpression [4]: neither Bcl-XL nor Bcl-2 overexpression provided any significant protection
dose-response curves of cell death in 5 L versus BP8 [5]: essentially the same
nuclear morphology / PI staining (SH-SY5Y cells [6]): numerous large, unfragmented pycnotic nuclei
cell cycle distribution (MDA-MB-231 cells; 24 h, FACS): accumulation in G2/M and reduction of G0/G1
cell proliferation by direct counting (MDA-MB-231 cells; 48 h exposure): dose-dependent inhibition of cell proliferation
reversibility of the effect by removal of compound (MDA-MB-231 cells; medium replaced at 48 h): poorly if at all reversible
DNA laddering (SH-SY5Y cells [7]): no ladder was observed
effector caspase activation (DEVDase activity) [8]: fell consistently below the background
time required to induce 70% cell death (SH-SY5Y cells [9]; 25 μM (FIG. 7)): ≤ 12 h
time to almost complete cell death (SH-SY5Y cells [9]; 25 μM (FIG. 7)): ≤ 24 h
effect of Q-VD-Oph on induced cell death (SH-SY5Y cells [9]; 25 μM indirubin, 48 h, 10 μM Q-VD-OPh (FIG. 10)): no effect
cell death inducing activity, position 7 halogen / N1-methyl series (MTS) (SH-SY5Y cells [9]; 48 h (FIG. 4)): equipotent
inhibitory activity on CDK5/p25 (in words) (CDK5/p25): marginal inhibitory activity
inhibitory activity on CDK5/p25 (in words) (CDK5/p25; listed as 24): weak and gradually decreasing inhibitory activity
induction of cell death [10]: induced cell death in the same range of concentrations
induction of p53 (p53): insignificant
cell death (LDH release) (SH-SY5Y cells [11]): most potent compound
cell cycle distribution of AhR−/− and AhR+/+ cells [12]: striking AhR-dependent accumulation in G0/G1
activation of caspase activity [13]: remained at the level of control
release of cytochome C from mitochondria (cytochome C release): negligible release
dose-response curves, wild-type versus p53-deprived HCT-116 [14]: essentially the same
